The source made the active and inactive calls. The calls are words filed in the database; no cut-off is given here.
Assays:
[1] = molecular target: Casein kinase I isoform epsilon (Homo sapiens) (UniProt P49674); test: Inhibition of CK1e Lys2 labeling site in human Huh-7 cells at 1 uM by KiNativ Profiling analysis relative to control; type: cell-based
[2] = molecular target: Microtubule-associated serine/threonine-protein kinase 4 (Homo sapiens) (UniProt O15021); test: Inhibition of MAST4 Lys2 labeling site in human Huh-7 cells at 1 uM by KiNativ Profiling analysis relative to control; type: cell-based
[3] = molecular target: Serine/threonine-protein kinase PAK 4 (Homo sapiens) (UniProt O96013); test: Inhibition of PAK4 (unknown origin) at 10 uM by Ambit Kinomescan binding assay
Chain of Serine/threonine-protein kinase PAK 4 (Homo sapiens) (O96013 whole entry, looked up): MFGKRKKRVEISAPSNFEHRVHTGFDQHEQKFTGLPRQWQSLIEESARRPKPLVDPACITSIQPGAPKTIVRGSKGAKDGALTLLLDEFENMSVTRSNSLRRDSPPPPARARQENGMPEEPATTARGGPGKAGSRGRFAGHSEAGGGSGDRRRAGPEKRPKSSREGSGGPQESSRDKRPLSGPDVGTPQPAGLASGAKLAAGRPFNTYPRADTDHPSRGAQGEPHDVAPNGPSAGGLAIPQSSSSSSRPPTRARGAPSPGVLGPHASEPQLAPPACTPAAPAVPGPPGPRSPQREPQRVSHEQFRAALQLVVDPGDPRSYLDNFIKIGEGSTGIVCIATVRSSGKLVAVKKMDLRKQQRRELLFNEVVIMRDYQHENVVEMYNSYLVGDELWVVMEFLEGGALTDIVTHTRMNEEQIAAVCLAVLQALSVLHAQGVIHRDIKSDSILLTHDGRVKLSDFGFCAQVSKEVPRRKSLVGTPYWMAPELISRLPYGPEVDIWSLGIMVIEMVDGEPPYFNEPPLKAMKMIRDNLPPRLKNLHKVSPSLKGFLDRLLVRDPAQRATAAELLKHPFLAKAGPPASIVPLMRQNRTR

[4] = molecular target: Leukocyte tyrosine kinase receptor (Homo sapiens) (UniProt P29376); test: Inhibition of LTK (unknown origin) at 10 uM by Ambit Kinomescan binding assay relative to control
Chain of Leukocyte tyrosine kinase receptor (Homo sapiens) (P29376 whole entry): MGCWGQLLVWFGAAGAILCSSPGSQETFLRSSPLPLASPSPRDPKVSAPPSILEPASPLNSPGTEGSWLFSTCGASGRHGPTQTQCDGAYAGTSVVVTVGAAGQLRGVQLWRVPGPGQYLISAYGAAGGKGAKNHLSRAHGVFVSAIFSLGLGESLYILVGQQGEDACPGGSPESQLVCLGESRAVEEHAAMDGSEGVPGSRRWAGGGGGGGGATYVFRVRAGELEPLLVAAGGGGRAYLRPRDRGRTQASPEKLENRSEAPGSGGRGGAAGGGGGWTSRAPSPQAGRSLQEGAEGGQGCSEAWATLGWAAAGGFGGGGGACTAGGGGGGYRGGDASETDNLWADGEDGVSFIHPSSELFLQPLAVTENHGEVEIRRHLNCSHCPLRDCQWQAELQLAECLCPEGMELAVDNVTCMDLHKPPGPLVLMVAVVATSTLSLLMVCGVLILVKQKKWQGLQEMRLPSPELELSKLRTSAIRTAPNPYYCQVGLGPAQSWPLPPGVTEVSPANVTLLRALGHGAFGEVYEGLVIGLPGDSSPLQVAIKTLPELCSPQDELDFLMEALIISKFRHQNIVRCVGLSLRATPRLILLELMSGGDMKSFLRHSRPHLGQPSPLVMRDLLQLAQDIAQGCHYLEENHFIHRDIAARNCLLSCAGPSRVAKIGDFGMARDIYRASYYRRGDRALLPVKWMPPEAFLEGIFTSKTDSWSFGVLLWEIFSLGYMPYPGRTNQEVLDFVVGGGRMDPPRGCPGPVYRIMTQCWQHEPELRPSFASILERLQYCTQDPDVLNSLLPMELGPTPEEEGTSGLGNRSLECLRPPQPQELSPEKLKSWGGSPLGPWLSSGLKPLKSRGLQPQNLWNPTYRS

[5] = molecular target: TRAF2 and NCK-interacting protein kinase (Homo sapiens) (UniProt Q9UKE5); test: Inhibition of ZC2/TNIK K2 labeling site in human Huh-7 cells at 1 uM by KiNativ Profiling analysis relative to control; type: cell-based
[6] = molecular target: Mitogen-activated protein kinase 3 (Homo sapiens) (UniProt P27361); test: Inhibition of ERK1 (unknown origin) at 10 uM by Ambit Kinomescan binding assay
Chain of Mitogen-activated protein kinase 3 (Homo sapiens) (P27361 whole entry): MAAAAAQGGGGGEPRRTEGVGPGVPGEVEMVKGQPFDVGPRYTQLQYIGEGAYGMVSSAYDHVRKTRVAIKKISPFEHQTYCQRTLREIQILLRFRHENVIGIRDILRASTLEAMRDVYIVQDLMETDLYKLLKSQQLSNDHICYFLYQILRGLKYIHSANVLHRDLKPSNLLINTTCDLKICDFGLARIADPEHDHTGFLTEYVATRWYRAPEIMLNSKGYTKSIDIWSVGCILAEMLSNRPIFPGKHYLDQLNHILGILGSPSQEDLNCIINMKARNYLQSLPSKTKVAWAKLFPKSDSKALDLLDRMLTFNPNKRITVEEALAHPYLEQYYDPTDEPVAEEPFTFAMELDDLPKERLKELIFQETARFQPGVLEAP

[7] = molecular target: Tyrosine-protein kinase CSK (Homo sapiens, UniProt P41240); test: Inhibition of CSK ACT labeling site harbouring VSDFGLTKEASSTQDTGKLPVK in human A-375 cells at 5 uM by KiNativ Profiling analysis relative to control; type: cell-based
Chain of Tyrosine-protein kinase CSK (P41240 2-450 limits assumed): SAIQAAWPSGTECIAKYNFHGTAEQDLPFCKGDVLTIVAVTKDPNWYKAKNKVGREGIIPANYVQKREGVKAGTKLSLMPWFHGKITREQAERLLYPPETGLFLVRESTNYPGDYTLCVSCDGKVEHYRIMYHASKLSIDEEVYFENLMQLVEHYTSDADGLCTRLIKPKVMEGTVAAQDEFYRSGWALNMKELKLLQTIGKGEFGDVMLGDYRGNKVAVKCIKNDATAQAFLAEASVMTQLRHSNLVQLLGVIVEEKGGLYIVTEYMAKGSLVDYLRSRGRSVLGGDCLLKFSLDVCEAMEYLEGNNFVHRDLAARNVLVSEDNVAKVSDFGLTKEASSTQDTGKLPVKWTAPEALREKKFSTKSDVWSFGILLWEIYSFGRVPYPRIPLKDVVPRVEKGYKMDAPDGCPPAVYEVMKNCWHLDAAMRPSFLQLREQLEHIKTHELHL

[8] = molecular target: Serine/threonine-protein kinase 26 (Homo sapiens) (UniProt Q9P289); test: Inhibition of MST4 (unknown origin) at 10 uM by Ambit Kinomescan binding assay
Chain of Serine/threonine-protein kinase 26 (Homo sapiens) (Q9P289 2-416 limits assumed): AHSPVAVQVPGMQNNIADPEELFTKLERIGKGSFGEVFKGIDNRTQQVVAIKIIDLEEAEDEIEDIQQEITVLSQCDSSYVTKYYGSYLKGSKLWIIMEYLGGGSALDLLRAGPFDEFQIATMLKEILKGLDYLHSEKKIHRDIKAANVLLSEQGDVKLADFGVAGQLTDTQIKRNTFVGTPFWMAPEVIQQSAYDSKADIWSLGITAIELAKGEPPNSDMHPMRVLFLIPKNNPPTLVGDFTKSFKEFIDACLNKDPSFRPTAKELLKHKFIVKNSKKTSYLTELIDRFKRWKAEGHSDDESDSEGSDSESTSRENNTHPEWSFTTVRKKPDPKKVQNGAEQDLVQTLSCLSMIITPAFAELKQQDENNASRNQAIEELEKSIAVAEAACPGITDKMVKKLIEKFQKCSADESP

[9] = molecular target: Interferon-induced, double-stranded RNA-activated protein kinase (Homo sapiens) (UniProt P19525); test: Inhibition of PKR ACT labeling site in human Huh-7 cells at 1 uM by KiNativ Profiling analysis relative to control; type: cell-based
[10] = molecular target: Dual specificity protein kinase CLK2 (Homo sapiens) (UniProt P49760); test: Inhibition of CLK2 (unknown origin) at 10 uM by Ambit Kinomescan binding assay
RAW = test: Inhibition of LPS induced p38 phosphorylation in mouse RAW cells preincubated for 1 hr followed by LPS stimulation and measured after 30 mins by Western blot analysis; type: functional, cell-based; conditions: dose 0.01-10 µM
[11] = molecular target: Serine/threonine-protein kinase WNK4 (Homo sapiens) (UniProt Q96J92); test: Inhibition of Wnk4 Lys2 labeling site in human A-375 cells at 0.5 uM by KiNativ Profiling analysis relative to control; type: cell-based
Chain of Serine/threonine-protein kinase WNK4 (Homo sapiens) (Q96J92 whole entry): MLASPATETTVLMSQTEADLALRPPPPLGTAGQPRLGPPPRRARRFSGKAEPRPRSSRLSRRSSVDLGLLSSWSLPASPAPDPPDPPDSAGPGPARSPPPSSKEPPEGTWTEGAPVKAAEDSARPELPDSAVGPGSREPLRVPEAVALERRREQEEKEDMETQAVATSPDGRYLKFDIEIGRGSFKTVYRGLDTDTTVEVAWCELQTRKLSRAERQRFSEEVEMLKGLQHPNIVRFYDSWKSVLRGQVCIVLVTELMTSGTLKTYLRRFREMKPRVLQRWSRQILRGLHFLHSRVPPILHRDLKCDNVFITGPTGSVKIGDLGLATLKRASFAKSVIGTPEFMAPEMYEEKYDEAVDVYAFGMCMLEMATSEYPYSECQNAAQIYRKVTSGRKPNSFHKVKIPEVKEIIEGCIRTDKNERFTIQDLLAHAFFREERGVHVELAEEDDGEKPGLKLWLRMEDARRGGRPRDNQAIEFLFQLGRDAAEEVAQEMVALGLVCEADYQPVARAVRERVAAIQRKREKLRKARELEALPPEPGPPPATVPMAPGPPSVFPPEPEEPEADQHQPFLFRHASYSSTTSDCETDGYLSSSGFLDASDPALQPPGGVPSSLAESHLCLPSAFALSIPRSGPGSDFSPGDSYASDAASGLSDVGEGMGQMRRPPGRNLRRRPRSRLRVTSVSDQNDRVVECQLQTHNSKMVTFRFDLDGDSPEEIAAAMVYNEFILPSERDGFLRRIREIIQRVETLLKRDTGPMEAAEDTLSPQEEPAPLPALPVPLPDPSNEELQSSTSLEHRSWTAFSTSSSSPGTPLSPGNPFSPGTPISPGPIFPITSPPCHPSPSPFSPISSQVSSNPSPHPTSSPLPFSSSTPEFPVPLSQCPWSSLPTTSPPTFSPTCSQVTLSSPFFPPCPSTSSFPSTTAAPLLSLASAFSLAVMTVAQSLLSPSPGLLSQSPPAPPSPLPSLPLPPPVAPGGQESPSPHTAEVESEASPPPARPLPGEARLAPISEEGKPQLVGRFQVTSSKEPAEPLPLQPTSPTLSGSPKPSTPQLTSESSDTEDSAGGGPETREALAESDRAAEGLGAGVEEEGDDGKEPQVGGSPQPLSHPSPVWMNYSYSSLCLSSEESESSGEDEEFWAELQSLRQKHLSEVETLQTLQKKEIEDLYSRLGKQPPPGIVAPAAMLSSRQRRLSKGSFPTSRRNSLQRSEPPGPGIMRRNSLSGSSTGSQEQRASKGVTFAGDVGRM

[12] = molecular target: T1, Dual specificity mitogen-activated protein kinase kinase 4 (Homo sapiens) (UniProt P45985); test: Inhibition of MAP2K4 K2 labeling site harbouring DIKPSNILLDR in human Huh-7 cells at 1 uM by KiNativ Profiling analysis relative to control; type: cell-based
T1 sequence (whole entry): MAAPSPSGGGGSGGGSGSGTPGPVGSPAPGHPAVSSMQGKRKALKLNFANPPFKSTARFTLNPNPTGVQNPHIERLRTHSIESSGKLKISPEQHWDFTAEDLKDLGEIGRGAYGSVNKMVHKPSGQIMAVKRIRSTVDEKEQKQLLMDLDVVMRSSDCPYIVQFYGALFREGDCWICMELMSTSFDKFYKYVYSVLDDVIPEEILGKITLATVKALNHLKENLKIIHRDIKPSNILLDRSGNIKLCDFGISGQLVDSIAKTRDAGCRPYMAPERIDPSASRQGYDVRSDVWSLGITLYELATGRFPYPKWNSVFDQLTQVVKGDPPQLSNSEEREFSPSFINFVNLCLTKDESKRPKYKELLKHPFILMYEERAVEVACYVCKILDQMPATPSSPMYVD

[13] = molecular target: T2, Serine/threonine-protein kinase D3 (Homo sapiens) (UniProt O94806); test: Inhibition of PKD3 K2 labeling site in human Huh-7 cells at 10 uM by KiNativ Profiling analysis relative to control; type: cell-based
T2 sequence (whole entry): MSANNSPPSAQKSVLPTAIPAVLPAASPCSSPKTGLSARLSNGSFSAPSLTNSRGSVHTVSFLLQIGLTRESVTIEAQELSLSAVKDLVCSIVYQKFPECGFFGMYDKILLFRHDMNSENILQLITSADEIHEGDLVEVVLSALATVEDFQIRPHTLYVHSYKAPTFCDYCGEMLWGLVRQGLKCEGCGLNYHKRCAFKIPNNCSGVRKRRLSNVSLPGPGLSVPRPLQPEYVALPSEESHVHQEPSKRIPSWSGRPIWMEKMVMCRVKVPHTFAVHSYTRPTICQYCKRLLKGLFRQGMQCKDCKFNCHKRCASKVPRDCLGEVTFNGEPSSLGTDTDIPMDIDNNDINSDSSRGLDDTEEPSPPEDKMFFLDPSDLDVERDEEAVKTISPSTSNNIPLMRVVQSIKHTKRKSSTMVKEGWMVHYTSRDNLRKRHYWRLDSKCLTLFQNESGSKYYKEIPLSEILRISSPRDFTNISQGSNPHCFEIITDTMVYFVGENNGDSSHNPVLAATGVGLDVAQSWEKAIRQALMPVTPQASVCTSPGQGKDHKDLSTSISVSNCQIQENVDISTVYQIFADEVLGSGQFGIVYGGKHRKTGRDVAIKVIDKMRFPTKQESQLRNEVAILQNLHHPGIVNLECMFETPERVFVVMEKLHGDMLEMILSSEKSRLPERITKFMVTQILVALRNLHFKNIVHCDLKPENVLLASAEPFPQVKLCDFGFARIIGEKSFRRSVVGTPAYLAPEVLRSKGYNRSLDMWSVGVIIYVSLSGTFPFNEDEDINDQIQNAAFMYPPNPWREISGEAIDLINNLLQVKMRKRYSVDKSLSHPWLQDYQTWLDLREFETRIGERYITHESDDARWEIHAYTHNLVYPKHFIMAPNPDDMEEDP

[14] = molecular target: Cyclin-dependent kinase 17 (Homo sapiens) (UniProt Q00537); test: Inhibition of PCTAIRE2 Lys1 labeling site harbouring SKLTENLVALKEIR in human A-375 cells at 0.05 uM by KiNativ Profiling analysis relative to control; type: cell-based
[15] = molecular target: Receptor-interacting serine/threonine-protein kinase 1 (Homo sapiens) (UniProt Q13546); test: Inhibition of RIPK1 (unknown origin) at 1 uM by Ambit Kinomescan binding assay relative to control
[16] = molecular target: Mitogen-activated protein kinase kinase kinase 11 (Homo sapiens) (UniProt Q16584); test: Inhibition of MLK3 Lys2 labeling site in human A-375 cells at 0.05 uM by KiNativ Profiling analysis relative to control; type: cell-based
Chain of Mitogen-activated protein kinase kinase kinase 11 (Homo sapiens) (Q16584 whole entry, looked up): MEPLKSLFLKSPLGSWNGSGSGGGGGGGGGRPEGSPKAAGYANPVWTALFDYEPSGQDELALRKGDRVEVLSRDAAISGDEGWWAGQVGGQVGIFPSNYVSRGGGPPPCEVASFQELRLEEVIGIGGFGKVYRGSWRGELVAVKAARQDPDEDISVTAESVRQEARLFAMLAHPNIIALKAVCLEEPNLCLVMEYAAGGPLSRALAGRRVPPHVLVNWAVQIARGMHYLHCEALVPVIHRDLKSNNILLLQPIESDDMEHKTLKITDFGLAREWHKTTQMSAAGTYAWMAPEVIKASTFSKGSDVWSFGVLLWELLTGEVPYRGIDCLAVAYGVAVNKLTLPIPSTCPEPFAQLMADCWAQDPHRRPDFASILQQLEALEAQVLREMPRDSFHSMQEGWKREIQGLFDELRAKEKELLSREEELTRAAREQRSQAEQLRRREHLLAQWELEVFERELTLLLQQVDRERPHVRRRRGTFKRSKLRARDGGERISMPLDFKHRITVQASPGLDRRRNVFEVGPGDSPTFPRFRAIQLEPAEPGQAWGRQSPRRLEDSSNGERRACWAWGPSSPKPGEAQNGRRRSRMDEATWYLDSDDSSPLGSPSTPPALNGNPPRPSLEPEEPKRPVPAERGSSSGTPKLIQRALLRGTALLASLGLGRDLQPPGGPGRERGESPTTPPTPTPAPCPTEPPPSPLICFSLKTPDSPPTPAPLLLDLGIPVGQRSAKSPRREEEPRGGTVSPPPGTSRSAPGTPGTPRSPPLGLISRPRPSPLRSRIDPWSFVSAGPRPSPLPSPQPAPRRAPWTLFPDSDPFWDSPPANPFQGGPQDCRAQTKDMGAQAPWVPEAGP

[17] = molecular target: Leucine-rich repeat serine/threonine-protein kinase 2 (Homo sapiens) (UniProt Q5S007); test: Inhibition of LRRK2 (unknown origin) at 1 uM by Ambit Kinomescan binding assay relative to control; values are per cent of control
[18] = molecular target: RAF proto-oncogene serine/threonine-protein kinase (Homo sapiens, UniProt P04049); test: Inhibition of RAF1 (unknown origin) Lys2 labeling site by KiNativ Profiling analysis

`CNc1cc(Oc2cc(C(=O)Nc3cc(N4CCN(C)CC4)cc(C(F)(F)F)c3)ccc2C)ncn1` was tested. Which inhibition [1] did it give?
The inhibition was 39.1%.

What about the inhibition [2] of the same compound?
The inhibition was 30.2%.

With `CCN1CCN(Cc2ccc(NC(=O)c3ccc(C)c(Oc4ccnc5[nH]ccc45)c3)cc2C(F)(F)F)CC1` as the compound, how does the inhibition [3] read?
Its inhibition is “inactive”.

And the inhibition [4]?
Its inhibition is 1.2%.

What about the inhibition [5] of the same compound?
The inhibition was 23%.

And the inhibition [6]?
Its inhibition is “inactive”.

What about the inhibition [7] of the same compound?
Its inhibition is 78.2%.

What about the inhibition [8] of the same compound?
Its inhibition is “inactive”.

And the inhibition [9]?
Its inhibition is 48.5%.

And the inhibition [10]?
Its inhibition is “inactive”.

What about the inhibition (RAW) of the same compound?
The inhibition was “Dose-Dependent Effect”.

And the inhibition [11]?
Its inhibition is 7.9%.

And the inhibition [12]?
The inhibition was -9.3%.

What about the inhibition [13] of the same compound?
The inhibition was 17.2%.

What about the inhibition [14] of the same compound?
Its inhibition is 2.5%.

Which results are given for `CCN1CCN(Cc2ccc(NC(=O)c3ccc(C)c(/C=C/c4cnc5[nH]ccc5c4OC)c3)cc2C(F)(F)F)CC1`?
inhibition [15]: 15%; inhibition [16]: 11.4%; residual activity [17]: 53%; IC50 [18]: 3.31 µM

Source: ChEMBL document CHEMBL5696442, “Discovery of type II inhibitors of TGFβ-activated kinase 1 (TAK1) and mitogen-activated protein kinase kinase kinase kinase 2 (MAP4K2)” (J Med Chem, 2015)
